Measurements published in article PMC11610403 (Journal of thrombosis and haemostasis : JTH, 2024).

Key:
[1] = system: caspase-1 activity in activated THP-1 cells; assay: Caspase-1 activity assay in stimulated THP-1 cells; type: cell-based, human; conditions: P3 peptide in the presence of P1-47-66 (1.0 nM), Figure 2A
[2] = system: vascular leakage; conditions: given in vivo to mice in the absence of APC or any P1 peptide; cited from earlier work

| Substance | synergism with P1-47-66 for reducing caspase-1 activity [1] | vascular leakage in mice [2] |
| --- | --- | --- |
| P3-42-65: PAR3-derived peptide comprising residues 42-65 (GAPPNSFEEFPFSALEGWTGATIT; UniProt O00254 42-65, looked up, fragment) | reduces caspase-1 activity synergistically | reduce vascular leakage |
| P3-51-65: PAR3-derived peptide, residues 51-65 (FPFSALEGWTGATIT; UniProt O00254 51-65, looked up, fragment) | similarly showed synergism | – |
